# In patent US20240148671A1, “METHODS FOR IMPROVING POULTRY HEALTH” (CORNELL UNIVERSITY, priority 2021, published 2024):
# Marks after values point to notes of the source that are not given here.
# Tests used:
# Format in all cases: in vivo, Gallus gallus
# TNF-α = experiment: Gene expression (RT-PCR), TNF-α; conditions: at hatch; b175, b210: compared with the 5% inulin control group; b192: comparator not stated; p<0.05
# Description: The pure resveratrol and pterostilbene were individually diluted in 18 MΩ H2O. The intra-amniotic administration followed the methodology previously described. On the 17th day of embryonic development, the eggs with viable embryos (n=60) were randomly allocated into 6 groups (n=10) with a similar weight frequency distribution. For the intra-amniotic treatment, 1 mL of solution per egg was injected into the amniotic fluid (via candling) with the aid of a 21-gauge needle. […]
# The RNA was isolated as described previously (RNeasy Mini Kit, Qiagen Inc., Valencia, CA, USA), and 30 mg of the duodenal tissue or liver tissue (n =8) was used to extract the total RNA. […] Finally, the RNA was eluted in 50 μL of RNase-free water and quantified by absorbance at 260 and 280 nm.
# RT-PCR was conducted as described. […] The cDNA content was assessed by absorbance at 260 and 280 nm, with an extinction coefficient of 33 (single-stranded DNA). Genomic DNA contamination was evaluated via a real-time RT-PCR assay for the reference gene samples [17,18,30]. […]
# The procedures were performed as previously published. […] The optimal MgCl2 concentration achieved, for each reaction, an amplification plot (lowest cycle product, Cp), the uppermost fluorescence intensity and the steepest amplification slope. […]
# [1] = Glycogen in pectoral muscle; conditions: intra-amniotic 1 mL/egg on day 17, at hatch, mean ± SEM, n=8
# Description: (§1) The pure resveratrol and pterostilbene were individually diluted in 18 MΩ H2O. The intra-amniotic administration followed the methodology previously described. On the 17th day of embryonic development, the eggs with viable embryos (n=60) were randomly allocated into 6 groups (n=10) with a similar weight frequency distribution. For the intra-amniotic treatment, 1 mL of solution per egg was injected into the amniotic fluid (via candling) with the aid of a 21-gauge needle. After the procedure, the injection sites were sealed with cellophane tape, and the eggs were distributed into six groups: (1) no injection; (2) 18 MΩ H2O; (3) 5% inulin; (4) 5% resveratrol; (5) 5% pterostilbene; and (6) synergistic: 4.75% resveratrol and 0.25% pterostilbene. […] The eggs were equally distributed in each incubator location to reduce possible allocation bias. Upon hatching (21 days), the hatchlings were euthanized by CO2 exposure, and the blood, liver, heart, pectoral muscle, small intestine and cecum were obtained.
# Liver Ferritin = experiment: Liver ferritin; conditions: intra-amniotic 1 mL/egg on day 17, at hatch, mean ± SEM, n=5
# Description: as §1
# [2] = system: duodenal tissue (villi, crypts, goblet cells); experiment: Morphometric examination of duodenal tissue
# Description: as §1
# Villus epithelium analysis was conducted as previously published. The duodenal samples were soaked in buffered formaldehyde (4% (v/v)), dehydrated, cleared and embedded in paraffin. Numerous sections were cut with a thickness of 5 μm and put on slides. The sections were deparaffinized in xylene, after which they were rehydrated in a series of graded alcohol. Finally, the slides were stained with Alcian Blue-periodic acid-Schiff and investigated under a light microscopy. The variables were assessed (light microscope, EPIX XCAP software, standard version, Olympus, Waltham, MA, USA) for the following: villus length, villus diameter, depth of crypts, goblet cell diameter, crypt goblet cell number and villus goblet cells type number (acidic, neutral or mixed). Four segments for each biological sample and five biological samples per treatment group were examined. The goblet cells were enumerated at 10 villi/sample, and the means were calculated for statistical analysis.
# [3] = duodenum, intra-amniotic 1 mL/egg on day 17, at hatch, mean ± SEM, n=5
# [4] = small intestine, intra-amniotic 1 mL/egg on day 17, at hatch, mean ± SEM, n=5
structure (smiles),measurement,setting,value
"Oc1ccc(C=Cc2cc(O)cc(O)c2)cc1 [5% Resveratrol, Resveratrol]",TNF-α gene expression,TNF-α,downregulated
same,Glycogen (mg/g),[1],0.019 ± 0.004^a mg/g
same,Liver Ferritin (A.U.),Liver Ferritin,0.839 ± 0.393^bc A.U.
same,Depth of Crypts (μm),[2]; [3],63.73 ± 1.20^a μm
same,Mucus Layer Width (μm),[2]; [3],4.80 ± 0.13^d μm
same,Villus Diameter (μm),[2]; [3],54.47 ± 0.70^b μm
same,Villus Length (μm),[2]; [3],294.92 ± 3.48^c μm
same,Crypt Goblet Cell Number,[2]; [4],10.91 ± 0.21 ^b
same,Goblet Cell Diameter (μM),[2]; [4],7.94 ± 0.06 ^b μM
same,"Villus Goblet Cell Type Number, Acidic",[2]; [4],10.97 ± 0.23 ^a
same,"Villus Goblet Cell Type Number, Mixed",[2]; [4],0.17 ± 0.03 ^c
same,"Villus Goblet Cell Type Number, Neutral",[2]; [4],0.00 ± 0.00 ^b
same,"Duodenal villus diameter, comparison with controls","[2]; versus the controls, p<0.05",significant increase
same,"Duodenal villus length, comparison with controls","[2]; versus the controls, p<0.05",significant increase
